We go through 3 molecules from US20080207632A1, “PROTEIN KINASE INHIBITORS” (SUPERGEN, INC., priority 2006, published 2008).

SMILES strings stand for the structures.

The target of one assay is T1, aurora-2 kinase (Homo sapiens, UniProt O14965).
T1 construct: purchased Upstate, Lake Placid, N.Y; host or cells: sf9 cells
T1 sequence (O14965 1-403): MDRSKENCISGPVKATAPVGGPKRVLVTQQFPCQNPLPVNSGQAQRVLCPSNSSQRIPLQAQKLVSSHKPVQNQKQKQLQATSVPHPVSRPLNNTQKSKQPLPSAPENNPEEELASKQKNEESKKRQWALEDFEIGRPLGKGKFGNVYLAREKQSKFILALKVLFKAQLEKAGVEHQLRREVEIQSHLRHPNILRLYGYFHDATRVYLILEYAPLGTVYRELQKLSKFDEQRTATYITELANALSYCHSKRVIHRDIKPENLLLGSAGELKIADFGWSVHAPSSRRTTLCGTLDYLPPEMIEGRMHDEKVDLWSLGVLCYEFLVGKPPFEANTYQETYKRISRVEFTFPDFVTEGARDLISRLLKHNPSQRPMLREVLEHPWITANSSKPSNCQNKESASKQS
The assay is described as follows: aurora-2 kinase inhibition assay (Kinase-Glo, ATP remaining). The class given is biochemical. The conditions noted are these: Example 54, Table 8; 3 μM ATP; read-out: Aurora-2 Inhibition, IC50. The protocol:
In this assay kinase activity was determined by quantifying the amount of ATP remaining in solution following a kinase reaction by measuring the light units (LU) produced by luciferase using a luminometer. Percent inhibition was determined for individual compounds by comparing luminometer readings of drug-treated reactions to controls containing no drug (DMSO control) and no Aurora-2 enzyme (ATP control) in the following equation: […]
(§1) In a 50 μl reaction, recombinant aurora-2 kinase produced in sf9 cells (Upstate, Lake Placid, N.Y.) was incubated at 30° C. for two hours with 62.5 μM Kemptide (Calbiochem, San Diego, Calif.), 3 μM ATP (Invitrogen, Carlsbad, Calif.) and kinase reaction buffer (40 mM Tris-HCl, 10 mM MgCl2 and 0.1 μg/μl bovine serum albumin (BSA)). This reaction was carried out in the presence of drug substances, which had been previously diluted to desired concentrations in DMSO. After incubation, 50 μl of Kinase-Glo® (Promega, Inc., Madison, Wis.) solution was added to each reaction mixture and allowed to equilibrate for 10 minutes at room temperature. Kinase-Glo solution contains luciferase enzyme and luciferin, which react with ATP to produce light. Kinase activity is determined by quantifying the amount of ATP remaining in solution following the kinase reaction by measuring the light units (LU) produced by luciferase using a luminometer (Thermo-Electron, Vantaa, Finland).
Briefly, kinase activity was determined by quantifying the amount of ATP remaining in solution following a kinase reaction by measuring the light units (LU) produced by luciferase using a luminometer. Percent inhibition was determined for individual compounds by comparing luminometer readings of drug-treated reactions to controls containing no drug (DMSO control) and no Aurora-2 enzyme (ATP control) in the following equation: […]
as §1, with “μg/Il” for “μg/μl”
Illustrative compounds 2-3, 2-5, 2-7, 2-4 and 2-9 were evaluated in an aurora-2 kinase inhibition assay. In this assay kinase activity was determined by quantifying the amount of ATP remaining in solution following a kinase reaction by measuring the light units (LU) produced by luciferase using a luminometer. Percent inhibition was determined for individual compounds by comparing luminometer readings of drug-treated reactions to controls containing no drug (DMSO control) and no Aurora-2 enzyme (ATP control) in the following equation: […]

The test system of assay [1] is MDA-MB-231 breast carcinoma cells. The assay is described as follows: cell proliferation assay (Cell-Titer-Glo), MDA-MB-231. Format: cell-based. The conditions noted are these: Homo sapiens, Example 65, 96 hours, read-out: IC50 (reduce cell number to 50% of untreated controls). The protocol:
Cell culture-based assays can be used to evaluate the ability of compounds of the invention to inhibit one or more cellular activities, such as cancer cell growth and/or survival. Numerous cancer cell lines can be obtained from the American Type Culture Collection (ATCC) and other sources. Briefly, cells are seeded into 96-well, tissue-culture treated, opaque white plates (Thermo Electron, Vantaa, Finland), at between 5000 and 10000 cells per well, depending on the speed of cell proliferation, in 100 μl of appropriate growth medium (determined by the ATCC). Cells are then exposed to the appropriate concentration of drug or an equal amount of DMSO (drug diluent) and allowed to grow in its presence for 96 hours. Following this, 100 μl of Cell-Titer-Glo reagent (Promega, Inc., Madison, Wis.) is added to each well. Plates are then shaken for 2 minutes at room temperature to allow for cell lysis and incubated for 10 minutes to stabilize the luminescent signal. Similar to the Kinase-Glo assay reagent from Promega, this reagent contains both luciferase enzyme and its substrate luciferin. Luciferase, activated by ATP in the cell lysate, catalyzes the conversion of luciferin to oxyluciferin, a reaction which produces light. The amount of light produced is proportionate to the amount of ATP in the cell lysate, which is itself proportional to cell number and gives an index of cellular proliferation.
Compound 1-1 and Compound 2-11 were tested in a cell proliferation assay to determine potency in a cell-based assay format. Briefly, MDA-MB-231 breast carcinoma cells were inoculated onto 96-well plates and incubated in the presence of compounds for 96 hours. Following incubation, cells were lysed and ATP content used as a surrogate for cell number, using the Cell-Titer-Glo Luminescent Cell Viability Assay Kit (Promega Corp.). IC50 values, representing the concentration required to reduce cell number to 50% of untreated controls, were determined to be 20 uM for Compound 1-1 and 10 uM for Compound 2-11.

Assay [2] has as its target T2, phosphorylated Axl in MDA-MB-231 breast carcinoma cells (Homo sapiens, UniProt P30530).
T2 construct: endogenous in cells; host or cells: MDA-MB-231 breast carcinoma cells
The experiment in a line: Axl autophosphorylation sandwich ELISA in cells. The class given is cell-based. Particulars: 10 uM, 48 hours. The protocol:
Compound 2-11 was examined in a cell-based assay to determine its ability to reduce the activity of the Axl kinase enzyme in cell culture. Axl, like many receptor tyrosine kinases, autophosphorylates in response to growth factor stimulation. Briefly, MDA-MB-231 breast carcinoma cells were plated in 25 cm^2 tissue culture flasks and incubated in the presence of varying concentrations of Compound 2-11 for 48 hours. Following incubation, cells were lysed and the presence of phosphorylated Axl was detected using a commercially available sandwich ELISA assay kit (R&D Systems Inc.). […] For example, at concentrations as low as 10 uM, levels of phosphorylated Axl were reduced to less than 50% of those observed for untreated control samples.

For assay [3], the system named is Granta-4 lymphoma cell line. The assay is described as follows: lymphoma cell number reduction, Granta-4. The class given is cell-based. Particulars: 48 hours; read-out: IC50 Values Granta-4, single agent. On the procedure:
(§2) New IC50 values were calculated for the second agent in an effort to determine whether or not pretreatment with one compound would increase sensitivity to the other. As set forth in the table below, compound 2-3 pretreatment led to an increased sensitivity to Taxol®, however Taxol® pretreatment appeared to be […] to compound 2-3 in this assay.

Assay [4] relates to Granta-22 lymphoma cell line. The assay is described as follows: lymphoma cell number reduction, Granta-22. Particulars: 48 hours; read-out: IC50 Values Granta-22, single agent. Format: cell-based. The protocol:
as §2

T2 sequence (P30530 26-894): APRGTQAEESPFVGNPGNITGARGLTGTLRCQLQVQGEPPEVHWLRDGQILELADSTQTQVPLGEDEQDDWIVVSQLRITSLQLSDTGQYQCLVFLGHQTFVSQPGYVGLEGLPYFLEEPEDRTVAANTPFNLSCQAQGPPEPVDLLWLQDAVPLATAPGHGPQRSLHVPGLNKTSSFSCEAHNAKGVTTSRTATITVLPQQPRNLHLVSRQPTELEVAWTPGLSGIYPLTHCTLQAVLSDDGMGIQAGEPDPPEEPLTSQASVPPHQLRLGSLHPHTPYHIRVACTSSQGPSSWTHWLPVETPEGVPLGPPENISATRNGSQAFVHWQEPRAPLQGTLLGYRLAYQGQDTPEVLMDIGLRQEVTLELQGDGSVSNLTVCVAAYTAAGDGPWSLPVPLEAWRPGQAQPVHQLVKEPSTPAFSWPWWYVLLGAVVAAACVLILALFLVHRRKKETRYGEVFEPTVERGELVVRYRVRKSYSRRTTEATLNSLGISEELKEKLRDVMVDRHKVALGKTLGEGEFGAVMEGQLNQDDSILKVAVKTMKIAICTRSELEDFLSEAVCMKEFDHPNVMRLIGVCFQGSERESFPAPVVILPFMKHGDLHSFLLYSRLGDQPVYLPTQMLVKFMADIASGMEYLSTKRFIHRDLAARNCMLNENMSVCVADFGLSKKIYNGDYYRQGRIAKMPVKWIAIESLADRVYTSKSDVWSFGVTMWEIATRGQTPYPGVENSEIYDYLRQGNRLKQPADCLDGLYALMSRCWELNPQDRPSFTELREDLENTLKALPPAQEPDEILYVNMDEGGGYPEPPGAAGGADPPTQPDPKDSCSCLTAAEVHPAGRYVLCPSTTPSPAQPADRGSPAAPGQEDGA

On to `COc1cc2[nH]c3ncnc(N4CCN(C(=S)Nc5ccc(S(=O)(=O)Nc6ccc(C(F)(F)F)cc6)cc5)CC4)c3c2cc1OC` [Compound 2-4, 4-(6,7-dimethoxy-9H-pyrimido[4,5-b]indol-4-yl)-N-(4-(N-(4-trifluoronethylhenyl)sulfamoyl)phenyl)piperazine-1-carbothioamide], for which the IC50 at aurora-2 kinase was 153 nM. Consider `CCc1nnc(NS(=O)(=O)c2ccc(NC(=S)N3CCN(c4ncnc5[nH]c6ccc(Cl)cc6c45)CC3)cc2)s1` [Compound 2-11], for which, in assay [1], the IC50 was found to be 10000 nM. Moreover, in assay [2], the “levels of phosphorylated Axl relative to untreated control samples” value is on record as “less than 50%”.

For the molecule `CC(=O)O[C@H]1C(=O)[C@@]2(C)[C@H]([C@H](OC(=O)c3ccccc3)[C@]3(O)C[C@H](OC(=O)[C@H](O)[C@@H](NC(=O)c4ccccc4)c4ccccc4)C(C)=C1C3(C)C)[C@]1(OC(C)=O)CO[C@@H]1C[C@@H]2O` [Taxol ®, reference compound], the IC50 in assay [3] turned out to be 301 nM; in assay [4], 2720 nM.
